Consider seven molecules from US20250326771A1, “PIPERAZINE DERIVATIVES USEFUL IN HIV THERAPY” (VIIV HEALTHCARE COMPANY, priority 2022, published 2025).

The test system of assay [1] is Jurkat HIV-luciferase clones. As to the kind of experiment: Jurkat latency reversal assay. Format: cell-based. The settings on record: Homo sapiens, 48 h; Jurkat latency reversal assay potency; read-out: Jurkat pEC50 (converted). In outline: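 EC50 and maximal activation versus vehicle were derived by four-parameter logistic regression of luciferase luminescence. The luminescence was induced in pooled Jurkat HIV-luciferase clones C16, 115 and N6 (5,000 cells/well) after 48 h at 37° C with duplicate 14-point, 3-fold dilutions starting at 10 μM (0.5% DMSO).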

For assay [2], the target named is cIAP1-BIR3 (Homo sapiens (Human), UniProt Q13490). Kind of assay: BIR binding assay (FRET competition), cIAP1 BIR3. The settings on record: for cIAP1 BIR3 vs BIR2 separation window: fold separation (FS) for cIAP1. In a few lines:
(§1)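 Each domain is run separately at its own level: 50 nM cIAP1-BIR3, 100 nM XIAP-BIR3, 325 nM for cIAP1-BIR2 or cIAP2-BIR2. Probe is a 200 nM fluorescent SMAC peptide, and the value is IC50 from FRET competition.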

The target in assay [3] is cIAP1-BIR2 (Homo sapiens (Human), UniProt Q13490). Kind of assay: BIR binding assay (FRET competition), cIAP1 BIR2. As to the method: (§2) The BIR domain binding assays are FRET based competition assays that utilize His-tagged versions of each of the BIR2 and BIR3 domains from cIAP1, cIAP2, and XIAP (each domain assayed separately) each at a custom optimal concentration and a probe, 200 nM SMAC/DIABLO peptide […] labelled with AlexaFluor647 (part #crb 1110326h, Discovery Peptides). The assay is conducted in 50 mM HEPES, […], 1 mM CHAPS, 5% Glycerol, 1 mM DTT, in dI water with a final pH of 7.4 and final volume of 20 uL. Final protein domain concentrations are: 50 nM cIAP1-BIR3 (Part #APT-11-370 Reaction Biology), 100 nM XIAP-BIR3 (Part #APT-11-351 Reaction Biology), 200 nM XIAP-BIR2 (Part #APT-11-470 Reaction Biology), 325 nM cIAP2-BIR2 (Part #APT-11-489 Reaction Biology), 50 nM cIAP2-BIR3 (Part #APT-11-372 Reaction Biology), 325 nM cIAP1-BIR2 (Part #APT-11-487 Reaction Biology). Compounds were plated using a HP Tecan D300 printer in a final total volume of 202 nl and DMSO concentration normalized across the 15-point, 3-fold dilution series. Peptide and probe were prepared at 2× relative to the concentrations above in binding buffer, 10 uL added to the prepared compound plates, and incubated for 60 minutes. LANCE Eu-W1024 (part #AD0401 Perkin Elmer #, vendor) was prepared at 2× concentration in binding buffer for final concentration of 2 nM, 10 uL added to each well, and plates incubated for 30 minutes. Plates were read on an ENVISION multifunction plate reader with […] laser excitation to obtain the 615 nm/665 nm emission ratio as indicative of probe:protein proximity. Data was analyzed using GraphPad PRISM and curves fit using log(inhibitor) vs. response—Variable slope (four […] method to obtain IC50 and pIC50 values.
Chain of cIAP1-BIR2 (Q13490 173-257): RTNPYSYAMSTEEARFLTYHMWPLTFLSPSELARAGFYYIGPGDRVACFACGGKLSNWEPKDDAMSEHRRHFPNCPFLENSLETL

Assay [4] deals with cIAP2-BIR3 (Homo sapiens (Human), UniProt Q13489). As to the kind of experiment: BIR binding assay (FRET competition), cIAP2 BIR3. The settings on record: for cIAP2 BIR3 vs BIR2 separation window: fold separation (FS) for cIAP2.
Chain of cIAP2-BIR3 (Q13489 238-349): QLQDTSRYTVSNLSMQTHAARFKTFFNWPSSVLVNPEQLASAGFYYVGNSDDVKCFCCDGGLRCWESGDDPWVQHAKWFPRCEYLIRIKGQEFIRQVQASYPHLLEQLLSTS
For assay [5], the target named is cIAP2-BIR2 (Homo sapiens (Human), UniProt Q13489). Kind of assay: BIR binding assay (FRET competition), cIAP2 BIR2. As to the method: as §2
Chain of cIAP2-BIR2 (Q13489 158-242): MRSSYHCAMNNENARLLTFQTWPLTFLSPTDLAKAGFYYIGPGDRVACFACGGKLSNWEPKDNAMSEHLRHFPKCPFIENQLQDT
Assay [6] addresses XIAP-BIR3 (Homo sapiens (Human), UniProt P98170). Kind of assay: BIR binding assay (FRET competition), XIAP BIR3. In a few lines:
as §1

Chain of cIAP1-BIR3 (Q13490 253-363): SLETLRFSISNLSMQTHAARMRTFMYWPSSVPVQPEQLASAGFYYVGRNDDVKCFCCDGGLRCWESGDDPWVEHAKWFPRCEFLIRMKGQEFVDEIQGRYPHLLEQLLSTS
Chain of XIAP-BIR3 (P98170 241-356): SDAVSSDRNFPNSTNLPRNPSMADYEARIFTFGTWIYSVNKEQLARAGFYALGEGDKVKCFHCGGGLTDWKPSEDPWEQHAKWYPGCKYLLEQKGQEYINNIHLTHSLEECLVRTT

For `C[C@@H]1CN(CC(=O)N2CC(C)(C)c3[nH]c(=O)c(Cc4ccc(F)cc4)cc32)[C@@H](CN2CCO[C@H](C(=O)NCCCCCCCCNC(=O)[C@@H]3CN(C[C@H]4CN[C@H](C)CN4CC(=O)N4CC(C)(C)c5[nH]c(=O)c(Cc6ccc(F)cc6)cc54)CCO3)C2)CN1` [Example 119, (2S,2'S)-N,N′-(octane-1,8-diyl)bis(4-(((2R,5R)-1-(2-(6-(4-fluorobenzyl)-3,3-dimethyl-5-oxo-2,3,4,5-tetrahydro-1H-pyrrolo[3,2-b]pyridin-1-yl)-2-oxoethyl)-5-methylpiperazin-2-yl)methyl)morpholine-2-carboxamide)], the EC50 in assay [1] is 12.6 to 63.1 nM. The IC50 in assay [2] lay in the range of 1.38 to 7.94 nM; in assay [3], 1000 to 3160 nM; in assay [4], 1.38 to 7.94 nM; in assay [5], 22.4 to 1000 nM; in assay [6], 7.94 to 15.8 nM. Also, in assay [2], the “cIAP1 BIR3 vs BIR2 separation window” value was “+++ (10,000>FS>1,000)”. In addition, the “cIAP2 BIR3 vs BIR2 separation window” value in assay [4] is listed as “+++ (10,000>FS>1,000)”.
For the molecule `C[C@@H]1CN(CC(=O)N2CC(C)(C)c3[nH]c(=O)c(Cc4ccc(F)cc4)cc32)[C@@H](CN2CCN(C(=O)COc3ccc(OCC(=O)N4CCN(C[C@H]5CN[C@H](C)CN5CC(=O)N5CC(C)(C)c6[nH]c(=O)c(Cc7ccc(F)cc7)cc65)[C@H](C)C4)cc3)C[C@H]2C)CN1` [Example 13, 1,1′-(2,2′-((3R,3′R,6R,6′R)-(((2R,2′R)-(2,2′-(1,4-phenylenebis(oxy))bis(acetyl))bis(2-methylpiperazine-4,1-diyl))bis(methylene))bis(3-methylpiperazine-6,1-diyl))bis(acetyl))bis(6-(4-fluorobenzyl)-3,3-dimethyl-1,2,3,4-tetrahydro-5H-pyrrolo[3,2-b]pyridin-5-one)], in assay [1], the EC50 is 63.1 to 316 nM. For the same molecule, the IC50 in assay [2] fell in the range of 15.8 to 31.6 nM; in assay [3], 22.4 to 1000 nM; in assay [4], 15.8 to 31.6 nM; in assay [5], 1000 to 3160 nM; in assay [6] it was 15.8 to 31.6 nM.
As for `C[C@@H]1CN(CC(=O)N2CC(C)(C)c3[nH]c(=O)c(Cc4ccc(F)cc4)cc32)[C@@H](CN2CCO[C@H](COc3cc(F)cc(OC[C@@H]4CN(C[C@H]5CN[C@H](C)CN5CC(=O)N5CC(C)(C)c6[nH]c(=O)c(Cc7ccc(F)cc7)cc65)CCO4)c3)C2)CN1` [Example 73, 1,1′-(2,2′-((3R,3′R,6R,6′R)-(((2S,2'S)-(((5-fluoro-1,3-phenylene)bis(oxy))bis(methylene))bis(morpholine-2,4-diyl))bis(methylene))bis(3-methylpiperazine-6,1-diyl))bis(acetyl))bis(6-(4-fluorobenzyl)-3,3-dimethyl-1,2,3,4-tetrahydro-5H-pyrrolo[3,2-b]pyridin-5-one)], in assay [1], the EC50 was 0.49 to 12.6 nM. Besides, the IC50 is 7.94 to 15.8 nM in assay [2]; 3160 to 10000 nM in assay [3]; 1.38 to 7.94 nM in assay [4]; 3160 to 10000 nM in assay [5]; 15.8 to 31.6 nM in assay [6]. Besides, the “cIAP1 BIR3 vs BIR2 separation window” value in assay [2] is recorded as “+++ (10,000>FS>1,000)”. Besides, the “cIAP2 BIR3 vs BIR2 separation window” value in assay [4] is “+++ (10,000>FS>1,000)”.
For `C[C@@H]1CN(CC(=O)N2CC(C)(C)c3c2cc(Cc2ccc(F)cc2)c(=O)n3C)[C@@H](CN2CCO[C@H](COCC#CC#CCOC[C@@H]3CN(C[C@H]4CN[C@H](C)CN4CC(=O)N4CC(C)(C)c5c4cc(Cc4ccc(F)cc4)c(=O)n5C)CCO3)C2)CN1` [Example 116, 1,1′-(2,2′-((3R,3′R,6R,6′R)-(((2S,2'S)-((hexa-2,4-diyne-1,6-diylbis(oxy))bis(methylene))bis(morpholine-2,4-diyl))bis(methylene))bis(3-methylpiperazine-6,1-diyl))bis(acetyl))bis(6-(4-fluorobenzyl)-3,3,4-trimethyl-1,2,3,4-tetrahydro-5H-pyrrolo[3,2-b]pyridin-5-one)], in assay [1], the EC50 is 316 to 3310 nM. Further, the IC50 fell in the range of 15.8 to 31.6 nM in assay [2]; 3160 to 10000 nM in assay [3]; 15.8 to 31.6 nM in assay [4]; 3160 to 10000 nM in assay [5]; 31.6 to 501 nM in assay [6]. Further, the “cIAP1 BIR3 vs BIR2 separation window” value in assay [2] was “+++ (10,000>FS>1,000)”. The “cIAP2 BIR3 vs BIR2 separation window” value in assay [4] was “+++ (10,000>FS>1,000)”.
With `COC(=O)c1cc(F)ccc1Cc1cnc2c(c1)N(C(=O)CN1C[C@@H](C)NC[C@@H]1CN1CCO[C@H](COc3cccc(OC[C@@H]4CN(C[C@H]5CN[C@H](C)CN5CC(=O)N5CC(C)(C)c6ncc(Cc7ccc(F)cc7C(=O)OC)cc65)CCO4)c3)C1)CC2(C)C` [Compound 152], the EC50 in assay [1] was 63.1 to 316 nM. Further, the IC50 is 7.94 to 15.8 nM in assay [2]; 3160 to 10000 nM in assay [3]; 7.94 to 15.8 nM in assay [4]; 3160 to 10000 nM in assay [5]; 31.6 to 501 nM in assay [6]. Further, in assay [2], the “cIAP1 BIR3 vs BIR2 separation window” value is recorded as “+++ (10,000>FS>1,000)”. The “cIAP2 BIR3 vs BIR2 separation window” value in assay [4] was “+++ (10,000>FS>1,000)”.
`C[C@@H]1CN(CC(=O)N2CC(C)(C)c3[nH]c(=O)c(Cc4ccc(F)c(F)c4F)cc32)[C@@H](CN2CCO[C@H](C(=O)NCc3ccc(CNC(=O)[C@@H]4CN(C[C@H]5CN[C@H](C)CN5CC(=O)N5CC(C)(C)c6[nH]c(=O)c(Cc7ccc(F)c(F)c7F)cc65)CCO4)cc3)C2)CN1` [Compound 178, (2S,2′S)-N,N′-(1,4-phenylenebis(methylene)) bis(4-(((2R,5R)-1-(2-(3,3-dimethyl-5-oxo-6-(2,3,4-trifluorobenzyl)-2,3,4,5-tetrahydro-1H-pyrrolo[3,2-b]pyridin-1-yl)-2-oxoethyl)-5-methylpiperazin-2-yl)methyl)morpholine-2-carboxamide)]: in assay [1], the EC50 was 0.49 to 12.6 nM. Moreover, the concentration for half-maximal inhibition (IC50) was in the range of 15.8 to 31.6 nM in assay [2]; 1000 to 3160 nM in assay [3]; 7.94 to 15.8 nM in assay [4]; 1000 to 3160 nM in assay [5]; 15.8 to 31.6 nM in assay [6]. The “cIAP1 BIR3 vs BIR2 separation window” value in assay [2] is on record as “+++ (10,000>FS>1,000)”. The “cIAP2 BIR3 vs BIR2 separation window” value in assay [4] is “+++ (10,000>FS>1,000)”.
On to `C[C@@H]1CN(CC(=O)N2CC(C)(C)c3[nH]c(=O)c(Cc4ccc(Cl)cc4C(F)(F)F)cc32)[C@@H](CN2CCO[C@H](C(=O)NCc3ccc(CNC(=O)[C@@H]4CN(C[C@H]5CN[C@H](C)CN5CC(=O)N5CC(C)(C)c6[nH]c(=O)c(Cc7ccc(Cl)cc7C(F)(F)F)cc65)CCO4)cc3)C2)CN1` [Compound 170, (2S,2′S)-N,N′-(1,4-phenylenebis(methylene)) bis(4-(((2R,5R)-1-(2-(6-(4-chloro-2-(trifluoromethyl)benzyl)-3,3-dimethyl-5-oxo-2,3,4,5-tetrahydro-1H-pyrrolo[3,2-b]pyridin-1-yl)-2-oxoethyl)-5-methylpiperazin-2-yl)methyl)morpholine-2-carboxamide)], for which the EC50 in assay [1] was 12.6 to 63.1 nM. In addition, the IC50 in assay [2] was 1.38 to 7.94 nM; in assay [3], 3160 to 10000 nM; in assay [4] it was 1.38 to 7.94 nM; in assay [5] it was 1000 to 3160 nM; in assay [6], 15.8 to 31.6 nM. The “cIAP1 BIR3 vs BIR2 separation window” value in assay [2] is recorded as “+++ (10,000>FS>1,000)”. Moreover, in assay [4], the “cIAP2 BIR3 vs BIR2 separation window” value was “+++ (10,000>FS>1,000)”.

As usually defined, the IC50 is the midpoint of a concentration-inhibition curve. Higher therefore signals lower potency.
